We go through 72 compounds from ChEMBL document CHEMBL3507680, “University of Dundee, Gates Library screen for HepG2 cell viability”.

This series is described as follows: Human HepG2 cell viability assay in 384 well format. The format is toxicity, cell-based. The arrangement: dose 125 nL, time 70.5 hour; cytotoxicity at 70.5 h: concentration not given beside the values. The following applies: HepG2 cells, read-out: Inhibition.
For the compound `CCc1oc(C(=O)N[C@@H]2c3ccccc3C[C@@H]2O)cc1CN1CCCC1`, the cytotoxicity at 70.5 h was -6.15%.
The result for `CCn1cnnc1CNS(=O)(=O)N1CCCC1c1ccco1` (configuration not stated) reads -9.43%; that for `Cc1cc(C(=O)NCc2cnn(C)c2C)nc(N2CCCCCC2)n1`, -3.96%.
In the case of `Cc1cccnc1CN1CCOC(Cc2cccc3ccccc23)C1` (configuration not stated), the cytotoxicity at 70.5 h was -6.62%.
Turning to `Cc1cnc(CN2CCN(c3nc(C)cs3)C(C)C2)cn1` (configuration not stated), the cytotoxicity at 70.5 h was -16.4%.
To `CCN(CC)C(=O)CCNC(=O)Cc1nc(-c2ccco2)oc1C` belongs 4.78%; to `CCc1cnc(N)nc1N1CCCC2(CCOCC2)C1`, -3.13%; to `Cc1cccc(CNCc2c(C(C)C)nn(C)c2N2CCOCC2)n1`, 0.6%.
To `Cc1c(C(=O)NC(C)CC(=O)c2cccs2)cnn1C` (configuration not stated) belongs 19.6%; to `CCCSc1ncc(C2CC(=O)NCc3nc4ccccn4c32)cn1` (configuration not stated), -3.19%; to `CC(C)c1nccn1C1CCCN(C(=O)CCNS(C)(=O)=O)C1` (configuration not stated), -6.32%.
With `COc1cc(-c2n[nH]c(CN)n2)cc(OC)c1OC`, the cytotoxicity at 70.5 h worked out at 23.8%.
To `CCC[C@H]1CN(Cc2ccc(N(C)C)nc2)C[C@@H]1NC(=O)CCOC` belongs -10.3%.
Regarding `Cn1ccnc1CN1CCC(c2nc3ccccc3n2C)CC1`, the cytotoxicity at 70.5 h was 28.7%.
With `Cn1ccnc1CN1CCc2onc(COCC3CC3)c2C1`, the cytotoxicity at 70.5 h is -4.62%.
Consider `Cc1noc(OCc2csc(C)n2)n1`, for which the cytotoxicity at 70.5 h is -3.72%.
Turning to `Cc1ccc(S(=O)(=O)N2CCN(CCC(N)=O)CC2)s1`, the cytotoxicity at 70.5 h is -7.66%.
In the case of `NCCn1cc(C(=O)N2CCCCCC2c2ccco2)nn1` (configuration not stated), the cytotoxicity at 70.5 h is -8.2%.
Turning to `Cc1nc(N2CCCC2C(=O)NC(C)(C)CO)nc2ccccc12` (configuration not stated), the cytotoxicity at 70.5 h is -7.7%.
In the case of `CN1CCC(c2n[nH]c(=O)n2CC2CCCCC2)CC1`, the cytotoxicity at 70.5 h was -8.59%.
In the case of `Cc1ccc(-c2cc(C(=O)NC(C)C(=O)N3CCCCC3)on2)cc1` (configuration not stated), the cytotoxicity at 70.5 h worked out at 5.48%.
`Cc1ccc(C(=O)N2CCO[C@H]3[C@H](OCCN(C)C)CC[C@@H]32)o1`: the cytotoxicity at 70.5 h was -4.42%.
As to `CCC(C)N(Cc1ccncc1)Cc1cccc(Cn2cccn2)c1` (configuration not stated), the cytotoxicity at 70.5 h is -6.76%.
For the compound `CCN(CC1CCOC1)C(=O)c1ccn(-c2ccc(OC)cc2)n1` (configuration not stated), the cytotoxicity at 70.5 h is -3.5%.
Consider `CC1CN(C(=O)CCc2cc(Br)cs2)CCO1` (configuration not stated), for which the cytotoxicity at 70.5 h was -4.33%.
For `Cc1ccc(S(=O)(=O)NC(=O)CCc2ccco2)cc1N(C)C`, the cytotoxicity at 70.5 h turned out to be 20.1%.
Regarding `Nc1cc2c(nn1)CCN(C(=O)c1cccc3c1OCO3)C2`, the cytotoxicity at 70.5 h was 2.4%.
On to `CCC(CC)C(CNC(=O)Nc1cnn(CCOC)c1)N(C)C` (configuration not stated), for which the cytotoxicity at 70.5 h was -8.7%.
In the case of `COC(C)(C)C(=O)N[C@H]1CN(c2nccnc2N(C)C)C[C@@H]1C(C)C`, the cytotoxicity at 70.5 h was -5.98%.
To `O=C(NC1CC1)C1=CC2(CCN(CCO)CC2)c2ccccc21` belongs -11%; to `c1csc(CN2CCc3onc(Cn4cccc4)c3C2)c1`, 2.81%; to `Cc1nn(C)c(C)c1C1CCCN1Cc1noc(C2CC2)n1` (configuration not stated), 7.14%.
Take `COCCCNC(=O)Nc1ccc(-n2cncn2)c(C(F)(F)F)c1`: the cytotoxicity at 70.5 h was -5.91%.
Turning to `CN1CCc2nnc(C3CCCN3S(=O)(=O)c3ccc(F)cc3)n2CC1` (configuration not stated), the cytotoxicity at 70.5 h was -3.97%.
Regarding `COc1cccc(C(=O)N2CCCC(C(=O)CCc3ccccc3)C2)c1` (configuration not stated), the cytotoxicity at 70.5 h is -0.206%.
To `CC(=O)NC1CCN(C(=O)Nc2ccc(SC(F)F)cc2)CC1` belongs -4.73%; to `Cc1nc(N2CCN(C(=O)c3ccco3)CC2)c2c(n1)c(C)nn2C`, -6.71%; to `Cc1cc(N2CCCC2c2cc(Nc3cnccn3)nc(C)n2)ncn1` (configuration not stated), -11.4%.
To `COc1ccc2nc(C3CC3)cc(C(=O)NCCc3nnc[nH]3)c2c1` belongs -3.73%; to `Cc1cn2nc(N3CCCC3C(=O)N3CCSCC3)sc2n1` (configuration not stated), -8.52%.
For `COc1cccc(F)c1CN1CCC(c2nc(C)cc(C)n2)C1` (configuration not stated), the cytotoxicity at 70.5 h is 14.3%.
Take `CCCN1C(=O)CC2(CCCNC2)C1=O` (configuration not stated): the cytotoxicity at 70.5 h is -14.9%.
To `O=S1(=O)C[C@@H]2[C@H](C1)N(Cc1cc(Cl)cc(Cl)c1)CCN2CCO` belongs -1.4%.
Take `CCC(C)N(Cc1ccncc1)Cc1ccccc1Cn1cccn1` (configuration not stated): the cytotoxicity at 70.5 h was -11.3%.
For `CC(C)C(=O)N1CCN(C(=O)CCc2nnc(-c3ccccc3)o2)CC1`, the cytotoxicity at 70.5 h is -21.2%.
Regarding `CCNC(=O)N1CC(c2nc(Cc3ccccc3)no2)C1`, the cytotoxicity at 70.5 h was -5.59%.
In the case of `CC(=O)N1CCCN(C(=O)NC(C)Cn2ccnc2)CC1` (configuration not stated), the cytotoxicity at 70.5 h is -4.31%.
To `Cc1nccn1CCC1CCCCN1C(=O)c1ccc2nonc2c1` (configuration not stated) belongs -1.05%; to `Oc1nc(N2CCCC2)nc2nccc(-c3ccccn3)c12`, -22.4%.
Regarding `CCc1nc(CN2CCCN(C(=O)c3cc(C)on3)CC2)cs1`, the cytotoxicity at 70.5 h was -1.87%.
To `N#Cc1cnc(N2CCC3(CC2)OCCO3)nc1N` belongs -5.59%; to `Cc1cc(NC(=O)NCc2nncn2C)ccc1OC(C)C`, 22.5%.
The result for `CNc1ncc(C(=O)N2CCC(CCc3ccccc3)CC2)cn1` reads 13.7%; that for `CNc1cc(C2CCCN2Cc2ccccc2OCC(=O)O)ccn1` (configuration not stated), -5.11%.
`Cn1cc(CNC2CCc3ncnn3C2)c(-c2ccncc2)n1` (configuration not stated): the cytotoxicity at 70.5 h is -1.76%.
As to `CC1(c2ccccc2)CCCN(Cc2cncn2C2CCCC2)C1` (configuration not stated), the cytotoxicity at 70.5 h was -13.6%.
On to `CCCn1ccc(C(=O)N2CCC(C)CC2)n1`, for which the cytotoxicity at 70.5 h was -11.6%.
Regarding `CC(C)(C)c1n[nH]c(C2CN(C(=O)c3cc(Cl)c[nH]3)CCO2)n1` (configuration not stated), the cytotoxicity at 70.5 h was -10.3%.
For the compound `Cc1ccc(CNC(C)c2cc(F)ccc2N2CCN(C)CC2)o1` (configuration not stated), the cytotoxicity at 70.5 h was 0.758%.
As for `CCc1cc(NCc2ccc(-n3cncn3)c(C)c2)n(C)n1`, the cytotoxicity at 70.5 h worked out at 2.61%.
On to `CCCN(CC)C(=O)c1ncn2c1CN(C)S(=O)(=O)c1ccccc1-2`, for which the cytotoxicity at 70.5 h was found to be 1.29%.
With `COc1cccc(CNCc2ccnc(N3CCOCC3)c2)c1OC`, the cytotoxicity at 70.5 h was -4.37%.
As to `N[C@@H]1CCN(Cc2cc(-c3ccccc3OC(F)(F)F)no2)C[C@H]1O`, the cytotoxicity at 70.5 h is -10.6%.
For the compound `N#Cc1cccc(S(=O)(=O)CCN2CCOC2=O)c1`, the cytotoxicity at 70.5 h was -8.07%.
To `CCN(Cc1ccoc1)C(=O)c1ccc(C)c(S(N)(=O)=O)c1` belongs -10.2%; to `CCN(Cc1cccnc1)C1CCN(c2ccccc2)C1=O` (configuration not stated), -3.8%.
The result for `Cc1cc(CN2CCN(C(=O)NCc3cccs3)CC2)on1` reads -14.6%.
To `CCOCC1CN(Cc2ccsc2)Cc2cnn(C)c21` (configuration not stated) belongs -0.486%.
Turning to `CC(C)CNC(=O)Nc1cccc(CN2CCOC2=O)c1`, the cytotoxicity at 70.5 h is -6.71%.
Take `O=C1NCCN1CCNCC1(O)CCCN(CCC2CCCCC2)C1=O` (configuration not stated): the cytotoxicity at 70.5 h was -4.14%.
For `Cc1cccnc1NC(=O)C1CCCN(c2cccc(C(F)(F)F)n2)C1` (configuration not stated), the cytotoxicity at 70.5 h is -0.942%.
As to `c1ccc(COCC2CN(Cc3ccsc3)Cc3nccn3C2)nc1` (configuration not stated), the cytotoxicity at 70.5 h was -7.86%.
